Results as given in patent US4784988A, “Peptides correlated to lysozyme” (Spa Societa' Prodotti Antibiotici S.p.A., priority 1985, dated 1988).
Where no end group is shown, it is not given here.

Assays:
[1] = type: physicochemical
Procedure: Having obtained the desired peptide sequence, it is then necessary to proceed with the splitting from the solid support and deprotection of the residual functional groups, which is carried out by action of gaseous hydrobromic acid on the peptide-resin suspension, working in trifluoroacetic acid and in presence of adequate quantities of anisole.

hyperalgesia of the paw = assay: Randall-Selitto test, painful threshold on compression of the paw made hyperalgesic with brewer's yeast; type: in vivo, rats; settings: rat, brewer's yeast 10 mg/rat, product injected in the paw, after 3 hours, vs irritant alone
Description: With regard to the biological activity of the peptide mixtures obtained by enzymatic hydrolysis of lysozyme, like many of the peptides isolated at the pure state and/or reproduced through synthesis, it is observed, as previously reported, that they lack the bacteriolytic activity typical of the integral lysozyme structure, whereas they present important pharmacological and therapeutic properties. It was therefore possible for example to evidence a marked analgesic activity of numerous peptides, by testing their anti-nociceptive effects on laboratory animals using the well-known Randall-Selitto method.
In groups of 5-10 rats, hyperalgesia of the paw is induced by administering an irritant agent, for example brewer's yeast (10 mg/rat), into the planter aponeurosis and at the same time injecting the product under test at different doses. One group of rats is treated with the irritant agent alone. At intervals, in particular after 3 hours, the painful threshold on compression of the edematous paw is measured, i.e. the minimum pressure (in g) causing the sudden withdrawal of the paw of the animal.
The results are expressed as percentage increase in the mean painful threshold compared to the paw treated with the algogenic agent alone (without the drug). As an example, the data relative to the peptide mixture denominated "Fraction P.2" of chromatographic origin (See Scheme 1) are reported, as well as the individual peptides (I), (II) and (III).

herpes simplex Type 1 = assay: herpes simplex virus plaque formation on Vero cell monolayers; type: cell-based; settings: herpes simplex Type 1, Vero cells, 72 hours' incubation
Procedure: Yet other example, the mixture and the peptides of the present invention resulted active in an antiviral sense in numerous cases. They were submitted to various tests to verify their influence on the capacity of the herpes simplex virus to infect and form plaques on monolayer cell cultures. To this purpose, a viral strain of herpes simplex Type 1 at suitable concentration was added to monolayers of Vero cells (Flow). After being in contact for 1 hour, the virus was removed and the monolayer washed and then covered with fresh culture medium […] (Flow), adding at the end suitable quantities of the substance under test. After 72 hours' incubation, the plates were coloured with neutral red and the visible plaques counted. […] Similar results were obtained with a peptide fraction isolated in an analogous manner after hydrolysis of lysozyme with trypsin and chymotrypsin. Even more surprising results were obtained with peptides such as (I) or (III) which resulted capable of inducing analogous reductions in the viral plaque-forming units at considerably lower concentrations (0.1-1 mg/ml).

[2] = tested on: cell colony-forming capacity; type: cell-based

Row | Substance | solubility in water [1] | Δ% of the algogenic threshold (hyperalgesia of the paw; dose 0.5 mg/rat) [%] | Δ% of the algogenic threshold (hyperalgesia of the paw; dose 0.75 mg/rat) [%] | Δ% of the algogenic threshold (hyperalgesia of the paw; dose 1 mg/rat) [%] | concentration inducing analogous reductions in the viral plaque-forming units (herpes simplex Type 1) | cytotoxic effects (cell colony-forming capacity) [2] | Δ% of the algogenic threshold (hyperalgesia of the paw; dose 2 mg/rat) [%] | Δ% of the algogenic threshold (hyperalgesia of the paw; dose 4 mg/rat) [%] | inhibition of the viral capacity to form plaques (herpes simplex Type 1; 5 mg/ml) [%]
1 | NTDGSTDY [peptide (II)] | very soluble in water | 30 | 60 | 90 | – | – | – | – | –
2 | NTQATNR [peptide (III)] | – | – | – | 30 | 0.1-1 mg/ml | devoid of cytotoxic effects | 60 | 100 | –
3 | NTQATNRNTDGSTDY [peptide (I)] | – | – | – | – | 0.1-1 mg/ml | devoid of cytotoxic effects | 120 | – | –
4 | lysozyme: small globular protein of 129 amino acid residues extracted from hen egg-white | – | – | – | – | – | – | – | – | 75
